Assay results as given in patent publication US4233309A, “Novel 1-substituted-3-acylpyrrole derivatives, platelet aggregation inhibitors containing them, as active ingredients, and processes for production of said derivatives” (Teijin Limited, priority 1977, dated 1980).
Values after ≈ are worked out from the molar mass of the structure shown. Like-named read-outs stand apart in the source and are kept apart here.

Legend:
carrageenan edema = assay: Antiinflammatory activity (carrageenan edema of rat paw, Table 5); type: in vivo, Sprangue-Dawley (SD) male rats; conditions: 3 h after 1% carrageenan
Experimental: Sprangue-Dawley (SD) male rats with a body weight of 160 to 180 g, four in each group, were used. The volume of the left leg was measured, and each of the test compounds shown in Table 5 (100 mg/kg dissolved in polyethylene glycol so as to provide a volume of 2 ml/kg) was orally administered. One hour later, 0.1 ml of 1% carrageenan (dissolved in physiological saline) as an inflammation-inducing substance was subcutaneously injected to the paw of the left hind leg. A control group was orally administered with 2 ml/kg of polyethylene glycol. As a positive control, 25 mg/kg of Ibprofen was similarly administered. Three hours after the injection of 1% carrageenan, the volume of the left leg was measured, and the ratio of edema was calculated from the volume before the administration of the carrageenan. The percent inhibition of edema in comparison with the control group was determined.

[1] = system: biosynthesis of prostaglandins (microsomes of the seminal vesicle of bovine); assay: Inhibitory effect on prostaglandin biosynthesis in vitro (Table 3); type: biochemical; conditions: 4 μg/ml sodium arachidonate, bioassay on rat fundus stomach strips
Experimental: Sprangue-Dawley rats (male, 180-200 g) were fasted overnight, and killed by blow on the head. The stomach was isolated, and fundus stomach strips were prepared. The smooth muscle strips were perfused with Krebs-Hensleit solution (gassed with 95% O2 +5% CO2 gas) of 37° C. at a rate of […]. The Krebs-Hensleit solution contained 0.1 μg/ml of atropine, 0.1 μg/ml of phenoxybenzamine, 3 μg/ml of propranolol, 0.1 μg/ml of tripelennamine, and 0.2 μg/ml of methylsergide to prevent the effect of smooth muscle contracting substances, and 1 μg/ml of indomethacine to inhibit the biosynthesis of prostaglandin by the smooth muscles. Then, 150 μl of a reaction solution containing biologically synthesized prostaglandin was added to the perfusion solution, and the amount of the biologically synthesized prostaglandin was measured from the contraction of the smooth muscles. The contraction of the smooth muscles was recorded on a recorder using an isotonic transducer.
The reaction solution containing biologically synthesized prostaglandin was prepared in the following manner.
To 0.4 mg/ml of microsomes of the seminal vesicle of bovine were added 5 mM of L-tryptophan, 0.025 μM of bovine hemoglobin and 3 mμ of glutathione as cofactors. The mixture was incubated together with each of the test compounds shown in Table 4 at 37° C. for 2 minutes, and immediately then, 4 μg/ml of sodium arachidonate was added. The mixture was further incubated at 37° C. for 10 minutes, and immediately then, the prostaglandin activity of the reaction solution was measured by bioassay.
The microsomes of the seminal vesicle of bovine had been prepared by suspending microsomes of the seminal vesicle of bovine (a product of Miles Laboratories, Inc.) in a 50 mM Tris.HCl buffer (pH 7.4) using a glass homogenizer, and stored in ice water prior to use.
ID50 denotes the concentration of each test compound required to inhibit the biosynthesis of prostaglandins by 50%.

[2] = system: platelet aggregation (platelet-rich plasmas (PRP) of guinea pigs); assay: Activity of inhibiting platelet aggregation in vitro, guinea pig PRP, sodium arachidonate as aggregating agent (Table 1); type: cell-based, Hartley-strain male guinea pigs; conditions: Cavia porcellus, sodium arachidonate 0.03 mM final, 37° C., final concentration, read-out: IC50 (minimum concentration of drug which showed a percent inhibition of more than 50%)
Experimental: (§1) Some 1-substituted-3-acylpyrrole derivatives and other drugs were tested for platelet aggregation inhibiting activities in vitro using platelet-rich plasmas (PRP) of man and guinea pigs. The results are shown as minimum concentration of drugs which inhibit more than 50% of platelet aggregation induced by several aggregating agents.
(§2) In experiments with PRP of guinea pigs, sodium arachidonate (final concentration 0.03 mM) was used as an aggregating agent. In experiments with human PRP, sodium arachidonate (final concentration 0.1 mM), collagan suspension (final concentration 10 μg/ml), epinephrine solution (final concentration 20 μg/ml; for secondary aggregation), an epinephrine solution (final concentration 2 μg/ml; for primary aggregation) and ADP (final concentration 5 μM) were used as aggregating agents.
In an experiment with guinea pig PRP, citrated blood (containing 0.38% sodium citrate as a final concentration) was withdrawn by cardiac puncture from Hartley-strain male guinea pigs having a body weight of 350 to 600 g. The citrated blood was centrifuged at 1,000 rpm for 10 minutes at room temperature, and the supernatant platelet suspension (PRP) was separated.
The PRP was stored at room temperature, and used as soon as possible. Those which had been stored for more than 4 hours after preparation were not used.
(§3) For each test, a drug is dissolved in dimethylsulfoxide to a concentration of 10 mg/ml, and diluted with physiological saline to form 1 ml each of solutions having a concentration of 2500 μg/ml, 1000 μg/ml, 750 μg/ml, 500 μg/ml, 250 μg/ml and 100 μg/ml. A compound having a free carboxylic acid as a residue such as indomethacine and Ibprofen was dissolved in 0.1 M NaHCO3 to form a sodium salt solution having a concentration of 10 mg/ml. Then, the solution was diluted with physiological saline in the same way as above to form a test drug solution.
(§4) Arachidonic acid (99% pure, a product of Sigma Co., Ltd.) was dissolved in 0.1 M NaHCO3, and a 3.3 mM solution of sodium arachidonate was prepared. The solution was diluted with physiological saline to a concentration of 1 mM and used in the experiments. The 3.3 mM solution was stored in a refrigerator as a stock solution, and the 1 mM solution was newly prepared from the stock solution every time it was used.
(§5) Physiological saline (50 μl) and 50 μl of the aggregating agent solution were added to 400 μl of PRP which had been pre-warmed and stirred at 37° C. in a quvett set in a holder of an aggregometer. Platelet aggregation was thus initiated, and the change of light transmittance through a stirred platelet suspension was recorded for 3 minutes by a recorder joined to the aggregometer. An increase in transmittance after 3 minutes (T0) was used as a parameter of the rate of platelet aggregation in control experiments.
(§6) To 400 μl of PRP in a quvett was added 50 μl of a test drug solution. The mixture was pre-incubated and stirred for 2 minutes at 37° C. Then 50 μl of the aggregating agent was added to drug containing PRP and again aggregation responses were recorded as increases in light transmittance after 3 minutes (T1) in the same way as in (1) above. Percent inhibition was calculated from the formula [formula]
For the above in vitro test for the inhibition of platelet aggregation, reference may be had to H. M. Davis, J. Phyllis, K. Paul and W. Terry: Thromb. Res. 11, 217-226 (1977) and R. E. Anderson and J. G. Foulks: Thromb. Haemos. 36, 343-359 (1976).

[3] = system: platelet aggregation (guinea pig PRP, extra vivo); assay: Inhibitory effect of compounds on platelet aggregation in extra vivo (Table 4); parameters: species or system Hartley-strain guinea pigs; conditions: Cavia porcellus, 100 mg/kg, route PS [sic], 1 h
Experimental: The effect of the compounds shown in Table 4 on platelet aggregation was assessed using guinea pig in extra vivo.
Each of the test compounds was dissolved in propylene glycol so that its concentration became 100 mg/ml (dosage corresponded to 100 mg/kg) and 30 mg/ml (dosage corresponded to 30 mg/kg). The drug solution was administered either orally or subcutaneously to Hartley-strain guinea pigs (3 per group) having a body weight of 300 to 350 g. As a control, propylene glycol was administered. One hour after the administration, citrated blood was taken out by cardiac puncture, and centrifuged to obtain PRP (see Example 67).
In the case of oral administration, the animals had been fasted overnight.
Into a quvett set in a holder of an aggregometer and prewarmed at 37° C. with stirring, was put 450 μl of the above PRP, and then 50 μl of an aggregating agent was added. The aggregation curve was recorded for an additional 3 minutes, and an increase in light transmittance through PRP after 3 minutes (TB) was recorded (see Example 67). As a control, an increase of transmittance of PRP taken from a guinea pig group administered with propylene glycol alone (TA) was recorded in the same way above. The percent inhibitions were calculated in accordance with the following equation. [formula]
As the aggregating agent, sodium arachidonate (a final concentraton of 0.03 mM) and a collagen suspension (a final concentration of 5 μg/ml) were used.
The percent inhibitions in the above table are averages of three guinea pigs. For details of the above extra vivo test about inhibition of platelet aggregation, the literature references described in Example 67 may be referred to.

[4] = system: platelet aggregation (human PRP); assay: Activity of inhibiting platelet aggregation in vitro, human PRP, several aggregating agents (Table 2); type: cell-based, human (healthy volunteers)
Experimental: as §1, §2
In the experiment using human PRP, heapinized blood (containing 20 IU/ml of heparin) was taken from the cubital vein of healthy volunteers, and centrifuged at 1,000 rpm at room temperature for 10 minutes. The supernatant platelet suspension (PRP) was separated.
as §3, §4
The collagen suspension (made by Hormon-Chemie, West Germany) was diluted with physiological saline to a concentraton of 100 μg/ml.
Epinephrine hydrogen tartarate was dissolved in physiological saline to form solutions having a concentration of 200 μg/ml (corresponding to a final concentration of 2 μg/ml).
Disodium salt of ADP was dissolved in a 0.1 M tris-hydrochloric acid buffer to form a 50 μM solution (corresponding to a final concentraton of 5 μM).
as §5
as §6, with “[formula] […]” for “[formula]”

[5] = collagen 5 μg/ml, read-out: Percent inhibition of platelet aggregation, collagen
[6] = sodium arachidonate 0.03 mM, read-out: Percent inhibition of platelet aggregation, sodium arachidonate

CC(C)Cc1ccc(C(C)C(=O)O)cc1 (stereo not shown) [Ibprofen, reference compound]
Percent inhibition of edema (positive control) (carrageenan edema; 25 mg/kg): 51%

Cc1cc(C(=O)c2ccccc2)c(C)n1C(C)COC(=O)c1ccccc1 (stereo not shown) [Compound 314, 2-(3-benzoyl-2,5-dimethylpyrrol-1-yl)-2-methylethyl benzoate]
ID50 (concentration required to inhibit the biosynthesis of prostaglandins by 50%) [1]: 56.0 µg/mL | IC50 [2]: 1 µg/mL (≈ 2.77 µM)

Cc1cc(C(=O)c2ccccc2)c(C)n1CCSc1ccccc1 [Compound 404, 2-(3-benzoyl-2,5-dimethylpyrrol-1-yl)ethyl phenyl sulfide]
IC50 [2]: 2.5 µg/mL (≈ 7.45 µM)

CC(=O)OC(c1ccccc1)C(C)n1c(C)cc(C(=O)c2ccccc2)c1C (stereo not shown) [Compound 328, 2-(3-benzoyl-2,5-dimethylpyrrol-1-yl)-2-methyl-1-phenylethyl acetate]
IC50 [2]: 2.5 µg/mL

Cc1cc(C(=O)c2ccccc2)c(C)n1[C@H](C)CO [Compound 110, (2R)-2-(3-benzoyl-2,5-dimethylpyrrol-1-yl)-2-methylethanol]
inhibition at 100 mg/kg [3, 5]: 90% | inhibition at 100 mg/kg [3, 6]: 96% | IC50 [2]: 1 µg/mL (≈ 3.89 µM)

Cc1cc(C(=O)c2ccccc2)c(C)n1[C@@H](C)CO [Compound 108, (2S)-2-(3-benzoyl-2.5-dimethylpyrrol-1-yl)-2-methylethanol]
inhibition at 100 mg/kg [3, 5]: 14% | inhibition at 100 mg/kg [3, 6]: 62% | IC50 [2]: 5 µg/mL (≈ 19.4 µM)

Cc1cc(C(=O)c2ccccc2)c(C)n1CCO [Compound 100, 2-(3-benzoyl-2,5-dimethylpyrrol-1-yl)-ethanol]
ID50 (concentration required to inhibit the biosynthesis of prostaglandins by 50%) [1]: 145.3 µg/mL | IC50 [2]: 5 µg/mL (≈ 20.6 µM)

COCC(C)n1c(C)cc(C(=O)c2ccccc2)c1C (stereo not shown) [Compound 206, 2-(3-benzoyl-2,5-dimethylpyrrol-1-yl)-2-methylethyl methyl ether]
inhibition at 100 mg/kg [3, 5]: 97% | inhibition at 100 mg/kg [3, 6]: 90% | ID50 (concentration required to inhibit the biosynthesis of prostaglandins by 50%) [1]: 18.4 µg/mL | Percent inhibition of edema (carrageenan edema; 100 mg/kg orally): 10% | IC50 [2]: 2.5 µg/mL (≈ 9.21 µM)

CCOC(=O)C(C)n1c(C)cc(C(=O)c2ccccc2)c1C (stereo not shown) [Compound 706, ethyl 2-(3-benzoyl-2,5-dimethylpyrrol-1-yl) propionate]
ID50 (concentration required to inhibit the biosynthesis of prostaglandins by 50%) [1]: 20.0 µg/mL | IC50 [2]: 1 µg/mL (≈ 3.34 µM)

Cc1cc(C(=O)c2ccccc2)c(C)n1C(C)C(N)=O (stereo not shown) [Compound 802, 2-(3-benzoyl-2,5-dimethylpyrrol-1-yl)propionamide]
inhibition at 100 mg/kg [3, 5]: 40% | inhibition at 100 mg/kg [3, 6]: 100% | IC50 [2]: 5 µg/mL (≈ 18.5 µM)

COC(c1ccccc1)C(C)n1c(C)cc(C(=O)c2ccccc2)c1C (stereo not shown) [Compound 218, 2-(3-benzoyl-2,5-dimethylpyrrol-1-yl)-2-methyl-1-phenylethyl methyl ether]
IC50 [2]: 5 µg/mL (≈ 14.4 µM)

CCCCC(=O)OCC(C)n1c(C)cc(C(=O)c2ccccc2)c1C (stereo not shown) [Compound 310, 2-(3-benzoyl-2,5-dimethylpyrrol-1-yl)-2-methylethyl valerate]
ID50 (concentration required to inhibit the biosynthesis of prostaglandins by 50%) [1]: 11.5 µg/mL | IC50 [2]: 2.5 µg/mL (≈ 7.32 µM)

CC(=O)Oc1ccccc1C(=O)O [Acetylsalicylic acid, reference compound]
inhibition at 100 mg/kg [3, 5]: 41% | inhibition at 100 mg/kg [3, 6]: 77%

COCCn1c(C)cc(C(=O)c2cccs2)c1C [Compound 252, 2-[3-(2-thenoyl)-2,5-dimethylpyrrol-1-yl]-ethyl methyl ether]
IC50 [2]: 2.5 µg/mL (≈ 9.49 µM)

COc1ccc2c(c1)c(CC(=O)O)c(C)n2C(=O)c1ccc(Cl)cc1 [Indomethacine]
ID50 (concentration required to inhibit the biosynthesis of prostaglandins by 50%) [1]: 0.6 µg/mL | IC50 ([4]; ADP 5 μM, read-out: IC50, aggregation by ADP): 10 µg/mL (≈ 27.9 µM) | IC50 ([4]; arachidonate 0.1 mM, read-out: IC50, aggregation by arachidonate): 1 µg/mL (≈ 2.79 µM) | IC50 ([4]; collagen 10 μg/ml, read-out: IC50, aggregation by collagen): 10 µg/mL (≈ 27.9 µM) | IC50 ([4]; epinephrine 2 μg/ml, primary aggregation, read-out: IC50, aggregation by epinephrine, primary): 10 µg/mL (≈ 27.9 µM) | IC50 ([4]; epinephrine 20 μg/ml, secondary aggregation, read-out: IC50, aggregation by epinephrine, secondary): 1 µg/mL (≈ 2.79 µM) | IC50 [2]: 5 µg/mL (≈ 14 µM)

COCCn1c(C)cc(C(=O)c2ccccc2C)c1C [Compound 238, 2-(3-o-methylbenzoyl-2,5-dimethylpyrrol-1-yl) ethyl methyl ether]
IC50 [2]: 10 µg/mL (≈ 36.9 µM)
